Measured values from ChEMBL document CHEMBL1201862, “PubChem BioAssay data set” (2004).
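Five compound concentrations were applied to cells in 96-well plates for 48 hours; endpoints were derived by simple linear interpolation of the resulting dose-response curve. GI50 = concentration required for 50% inhibition of growth.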 Activity calls are given as the source filed them. Rule as the data show it: active = GI50 up to about 1.1 µM and inactive = higher.

Columns and labels:
Test in all cases: growth of human tumour cells (NCI), 48 h
HOP-92 = tested on: HOP-92
MOLT-4 = tested on: MOLT-4
786-0 = tested on: 786-0
HCT-15 = tested on: HCT-15
IGROV-1 = tested on: IGROV-1
HCT-116 = tested on: HCT-116
SF-295 = tested on: SF-295
M19-MEL = tested on: M19-MEL
SNB-19 = tested on: SNB-19
XF498 = tested on: XF498
UACC-62 = tested on: UACC-62
OVCAR-8 = tested on: OVCAR-8
M14 = tested on: M14
DMS-273 = tested on: DMS-273
COLO 205 = tested on: COLO 205
UACC-257 = tested on: UACC-257
UO-31 = tested on: UO-31
SK-MEL-5 = tested on: SK-MEL-5
NCI-H23 = tested on: NCI-H23
Malme-3M = tested on: Malme-3M
OVCAR-4 = tested on: OVCAR-4
RXF 631 = tested on: RXF 631
HL-60 = tested on: HL-60
ACHN = tested on: ACHN
SN12C = tested on: SN12C
DLD-1 = tested on: DLD-1
RXF 393 = tested on: RXF 393
LXFL 529 = tested on: LXFL 529
OVCAR-3 = tested on: OVCAR-3
HCC 2998 = tested on: HCC 2998
KM-20L2 = tested on: KM-20L2
HT-29 = tested on: HT-29
CCRF-CEM = tested on: CCRF-CEM
SNB-75 = tested on: SNB-75
A549 = tested on: A549
NCI-H460 = tested on: NCI-H460
EKVX = tested on: EKVX
SK-MEL-28 = tested on: SK-MEL-28
SW-620 = tested on: SW-620
SK-OV-3 = tested on: SK-OV-3
KM12 = tested on: KM12
NCI-H226 = tested on: NCI-H226
HOP-62 = tested on: HOP-62
SF-268 = tested on: SF-268
TK-10 = tested on: TK-10
CAKI-1 = tested on: CAKI-1
HOP-18 = tested on: HOP-18
SR = tested on: SR
SF-539 = tested on: SF-539
NCI-H522 = tested on: NCI-H522
LOX IMVI = tested on: LOX IMVI
SK-MEL-2 = tested on: SK-MEL-2

Compound: C=C(C)CC(C)(c1cc2ccccc2n1C)N1CCOCC1 (configuration not stated)
- GI50 (HOP-92): 14.8 µM (inactive)
- GI50 (MOLT-4): 40.3 µM (inactive)
- GI50 (786-0): > 100 µM (inactive)
- GI50 (HCT-15): 75.7 µM
- GI50 (IGROV-1): 75.7 µM (inactive)
- GI50 (HCT-116): 60.1 µM (inactive)
- GI50 (SF-295): > 100 µM (inactive)
- GI50 (M19-MEL): > 100 µM (inactive)
- GI50 (SNB-19): > 100 µM (inactive)
- GI50 (XF498): 50.6 µM (inactive)
- GI50 (UACC-62): 45.1 µM (inactive)
- GI50 (OVCAR-8): 67.1 µM (inactive)
- GI50 (M14): 70 µM (inactive)
- GI50 (DMS-273): 61 µM (inactive)
- GI50 (COLO 205): > 100 µM (inactive)
- GI50 (UACC-257): 95.1 µM (inactive)
- GI50 (UO-31): 22.9 µM (inactive)
- GI50 (SK-MEL-5): 42.2 µM (inactive)
- GI50 (NCI-H23): 55.1 µM (inactive)
- GI50 (Malme-3M): > 100 µM (inactive)
- GI50 (OVCAR-4): > 100 µM (inactive)
- GI50 (RXF 631): 42.4 µM (inactive)
- GI50 (HL-60): 57 µM (inactive)
- GI50 (ACHN): 62.2 µM (inactive)
- GI50 (SN12C): 93.5 µM (inactive)
- GI50 (DLD-1): 60.5 µM (inactive)
- GI50 (RXF 393): 65.5 µM (inactive)
- GI50 (LXFL 529): 53.7 µM (inactive)
- GI50 (OVCAR-3): 66.5 µM (inactive)
- GI50 (HCC 2998): > 100 µM (inactive)
- GI50 (KM-20L2): > 100 µM (inactive)
- GI50 (HT-29): > 100 µM (inactive)
- GI50 (CCRF-CEM): 44.5 µM (inactive)
- GI50 (SNB-75): > 100 µM (inactive)
- GI50 (A549): 59.2 µM (inactive)
- GI50 (NCI-H460): 60.8 µM (inactive)
- GI50 (EKVX): 36.4 µM (inactive)
- GI50 (SK-MEL-28): > 100 µM (inactive)
- GI50 (SW-620): > 100 µM (inactive)
- GI50 (SK-OV-3): > 100 µM (inactive)
- GI50 (KM12): 38.4 µM (inactive)
- GI50 (NCI-H226): 69.8 µM (inactive)
- GI50 (HOP-62): > 100 µM (inactive)
- GI50 (SF-268): 41.5 µM (inactive)
- GI50 (TK-10): > 100 µM (inactive)
- GI50 (CAKI-1): 80.5 µM (inactive)
- GI50 (HOP-18): > 100 µM (inactive)
- GI50 (SR): 69 µM (inactive)
- GI50 (SF-539): > 100 µM (inactive)
- GI50 (NCI-H522): 10.6 µM (inactive)
- GI50 (LOX IMVI): > 100 µM (inactive)
- GI50 (SK-MEL-2): > 100 µM (inactive)
